Assay results taken from patent publication US10570131B2, “Heterocyclic compounds and their use in preventing or treating bacterial infections” (MUTABILIS, priority 2015, dated 2020).

Assays:
E. cloacae P99 [1] = assay: MIC of ceftazidime alone and in combination with compounds (synergy), broth microdilution; assay type: cell-based; details: MIC of ceftazidime with compound fixed at 4 μg/mL; strain P99 (AmpC)
P. aeruginosa CIP105250 [2] = assay: microbe, parasite or virus in culture; assay type: cell-based; details: Pseudomonas aeruginosa, CIP105250, read-out: MIC compounds of the invention alone
Procedure: (§1) Compounds of the present invention were assessed against genotyped bacterial strains alone or in combination with the β-lactam ceftazidime (CAZ). […] Briefly, compounds alone according to the invention were prepared in DMSO and spotted (2 μL each) on sterile polystyrene plates (Corning, 3788). […] Log phase bacterial suspensions were adjusted to a final density of 5×10^5 cfu/mL in cation-adjusted Mueller-Hinton broth (Becton-Dickinson) and added to each well (98 μL). Microplates were incubated for 16-20 h at 35° C. in ambient air. The MIC of the compounds was defined as the lowest concentration of said compounds that prevented bacterial growth as read by visual inspection.

K. pneumoniae BAA-1898 [3] = assay: microbe, parasite or virus in culture; assay type: cell-based; details: Klebsiella pneumoniae, BAA1898, read-out: MIC compounds of the invention alone
Procedure: as §1

E. coli 131119 = assay: microbe, parasite or virus in culture; assay type: cell-based; details: Escherichia coli, 131119, read-out: MIC compounds of the invention alone
Procedure: as §1

K. pneumoniae 6299 [4] = assay: microbe, parasite or virus in culture; assay type: cell-based; details: Klebsiella pneumoniae, 6299, read-out: MIC compounds of the invention alone
Procedure: as §1

OXA-48 = molecular target: T1, OXA-48 (Klebsiella pneumoniae, UniProt Q6XEC0); assay: β-lactamase inhibitory activity, IC50 (nitrocefin hydrolysis); assay type: biochemical
T1 construct: made in house; host or cells: E. coli expression vector
T1 sequence (Q6XEC0 23-265 limits assumed): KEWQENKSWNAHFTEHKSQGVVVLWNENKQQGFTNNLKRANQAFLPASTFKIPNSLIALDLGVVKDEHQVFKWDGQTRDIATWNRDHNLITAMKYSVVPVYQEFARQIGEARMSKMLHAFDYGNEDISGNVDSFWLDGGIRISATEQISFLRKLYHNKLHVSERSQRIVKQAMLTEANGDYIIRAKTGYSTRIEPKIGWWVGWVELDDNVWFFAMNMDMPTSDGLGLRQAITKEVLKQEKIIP
Procedure: (§2) Method 1: β-lactamase Inhibitory Activity, Determination of IC50 (Table 1)
(§3) Enzyme activity was monitored by spectrophotometric measurement of nitrocefin (NCF—TOKU-E, N005) hydrolysis at 485 nm, at room temperature and in assay buffer A: 100 mM Phosphate pH7, 2% glycerol and 0.1 mg/mL Bovine serum albumin (Sigma, B4287). Enzymes were cloned in E. coli expression vector, expressed and purified in house using classical procedures. To a transparent polystyrene plate (Corning, 3628) were added in each well 5 μL DMSO or inhibitor dilutions in DMSO and 80 μL enzyme in buffer A. Plates were immediately read at 485 nm in a microplate spectrophotometer (BioTek, PowerWave HT) to enable background subtraction. After 30 min of pre-incubation at room temperature, 15 μL of NCF (200 μM final) were finally added in each well. Final enzyme concentrations were 0.1 nM (TEM-1), 0.075 nM (SHV-1), 0.4 nM (CTX-M-15), 1 nM (KPC-2), 0.2 nM (P99 AmpC), 0.2 nM (CMY-37), 0.4 nM (AmpC P. aeruginosa), 0.2 nM (OXA-1), 1.2 nM (OXA-11), 0.4 nM (OXA-15) and 0.3 nM (OXA-48). After 20 min incubation at room temperature, plates were once again read at 485 nm. Enzyme activity was obtained by subtracting the final signal by the background, and was converted to enzyme inhibition using non inhibited wells. IC50 curves were fitted to a classical Langmuir equilibrium model with Hill slope using XLFIT (IDBS).

OXA-11 = molecular target: T2, OXA-11 (Pseudomonas aeruginosa, UniProt Q06778); assay: as above; assay type: biochemical
T2 construct: made in house; host or cells: E. coli expression vector
T2 sequence (Q06778 21-266): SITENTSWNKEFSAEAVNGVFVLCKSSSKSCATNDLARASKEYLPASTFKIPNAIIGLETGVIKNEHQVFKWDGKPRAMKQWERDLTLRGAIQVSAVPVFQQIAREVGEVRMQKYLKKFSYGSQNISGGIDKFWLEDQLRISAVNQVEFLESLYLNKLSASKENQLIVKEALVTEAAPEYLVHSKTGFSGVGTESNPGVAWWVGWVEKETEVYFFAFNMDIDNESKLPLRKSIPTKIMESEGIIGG
Procedure: as §2, §3

KPC-2 = molecular target: T3, KPC-2 (Klebsiella pneumoniae, UniProt Q9F663); assay: as above; assay type: biochemical
T3 construct: made in house; host or cells: E. coli expression vector
T3 sequence (Q9F663 25-293 limits assumed): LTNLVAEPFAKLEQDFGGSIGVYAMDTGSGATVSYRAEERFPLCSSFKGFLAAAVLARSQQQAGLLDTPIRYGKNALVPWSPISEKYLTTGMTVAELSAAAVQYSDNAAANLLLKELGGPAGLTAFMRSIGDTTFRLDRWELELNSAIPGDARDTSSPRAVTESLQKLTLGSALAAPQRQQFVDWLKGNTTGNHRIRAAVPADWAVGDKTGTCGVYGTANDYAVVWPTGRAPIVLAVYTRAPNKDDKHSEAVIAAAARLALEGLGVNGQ
Procedure: as §2, §3

OXA-1 = molecular target: T4, OXA-1 (Escherichia coli, UniProt P13661); assay: as above; assay type: biochemical
T4 construct: made in house; host or cells: E. coli expression vector
T4 sequence (P13661 26-276): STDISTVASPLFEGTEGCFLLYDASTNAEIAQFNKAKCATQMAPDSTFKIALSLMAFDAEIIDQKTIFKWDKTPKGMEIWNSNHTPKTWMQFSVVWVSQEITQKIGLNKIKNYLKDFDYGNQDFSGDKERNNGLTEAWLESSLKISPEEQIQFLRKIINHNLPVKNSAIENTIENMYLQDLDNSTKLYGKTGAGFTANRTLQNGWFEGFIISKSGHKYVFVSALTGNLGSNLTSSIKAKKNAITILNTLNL
Procedure: as §2, §3

SHV-1 = molecular target: T5, SHV-1 (Klebsiella pneumoniae, UniProt P0AD64); assay: as above; assay type: biochemical
T5 construct: made in house; host or cells: E. coli expression vector
T5 sequence (P0AD64 22-286): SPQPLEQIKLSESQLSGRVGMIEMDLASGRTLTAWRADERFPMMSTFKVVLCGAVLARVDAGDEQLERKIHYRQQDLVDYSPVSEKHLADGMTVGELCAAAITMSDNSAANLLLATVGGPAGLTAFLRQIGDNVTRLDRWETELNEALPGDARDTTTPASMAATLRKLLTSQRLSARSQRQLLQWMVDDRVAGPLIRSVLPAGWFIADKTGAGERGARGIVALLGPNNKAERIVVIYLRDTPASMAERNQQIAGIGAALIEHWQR
Procedure: as §2, §3

TEM-1 = molecular target: T6, TEM-1 (Escherichia coli, UniProt P62593); assay: as above; assay type: biochemical; details: class (A); 30 min pre-incubation; NCF 200 μM
T6 construct: made in house; host or cells: E. coli expression vector
T6 sequence (P62593 24-286 limits assumed): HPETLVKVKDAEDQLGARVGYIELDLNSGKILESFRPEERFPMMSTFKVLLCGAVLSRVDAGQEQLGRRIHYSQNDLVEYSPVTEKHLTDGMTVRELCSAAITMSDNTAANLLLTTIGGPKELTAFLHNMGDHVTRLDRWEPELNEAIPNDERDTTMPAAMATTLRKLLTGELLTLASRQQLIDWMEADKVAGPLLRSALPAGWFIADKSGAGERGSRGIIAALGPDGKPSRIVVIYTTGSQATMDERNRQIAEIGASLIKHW
Procedure: as §2, §3

CTX-M-15 = molecular target: T7, CTX-M-15 (Escherichia coli, UniProt Q9EXV5); assay: as above; assay type: biochemical
T7 construct: made in house; host or cells: E. coli expression vector
T7 sequence (Q9EXV5 entry or part of it): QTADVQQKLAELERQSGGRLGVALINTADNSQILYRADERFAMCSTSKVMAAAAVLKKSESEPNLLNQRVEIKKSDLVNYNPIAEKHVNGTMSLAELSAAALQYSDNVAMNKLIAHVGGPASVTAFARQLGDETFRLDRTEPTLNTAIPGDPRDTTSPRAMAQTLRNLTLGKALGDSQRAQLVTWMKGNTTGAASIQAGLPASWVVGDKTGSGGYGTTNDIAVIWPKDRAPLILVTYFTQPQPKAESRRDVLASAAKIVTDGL
Procedure: as §2, §3

OXA-15 = molecular target: T8, OXA-15 (Pseudomonas aeruginosa, UniProt Q51574); assay: biochemical
T8 construct: made in house; host or cells: E. coli expression vector
T8 sequence (Q51574 22-275): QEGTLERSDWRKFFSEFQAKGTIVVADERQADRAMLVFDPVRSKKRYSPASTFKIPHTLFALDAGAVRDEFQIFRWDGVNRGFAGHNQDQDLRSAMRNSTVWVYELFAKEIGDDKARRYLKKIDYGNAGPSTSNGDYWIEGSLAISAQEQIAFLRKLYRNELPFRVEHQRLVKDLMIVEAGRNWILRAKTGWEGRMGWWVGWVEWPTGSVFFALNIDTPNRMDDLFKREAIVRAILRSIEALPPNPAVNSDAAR
Procedure: as §2, §3

AmpC (P99) = molecular target: T9, AmpC (P99) (Enterobacter cloacae, UniProt P05364); assay: biochemical
T9 construct: made in house; host or cells: E. coli expression vector
T9 sequence (P05364 21-381): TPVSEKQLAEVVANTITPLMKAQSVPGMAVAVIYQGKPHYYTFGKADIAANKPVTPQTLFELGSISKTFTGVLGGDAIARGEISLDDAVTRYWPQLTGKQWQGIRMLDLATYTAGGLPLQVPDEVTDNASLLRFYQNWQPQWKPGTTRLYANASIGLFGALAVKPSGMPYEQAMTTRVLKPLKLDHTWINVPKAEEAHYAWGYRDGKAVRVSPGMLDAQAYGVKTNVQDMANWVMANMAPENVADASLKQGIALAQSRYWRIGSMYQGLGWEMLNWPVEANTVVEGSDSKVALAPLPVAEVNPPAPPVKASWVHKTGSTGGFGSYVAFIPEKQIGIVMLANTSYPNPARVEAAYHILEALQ
Procedure: as §2, §3

E. coli RGN238 = assay: MIC of compounds alone, broth microdilution; assay type: cell-based; details: Escherichia coli, RGN238, read-out: MIC compounds of the invention alone
Procedure: as §1

P. aeruginosa CIP107051 [5] = assay: MIC of compounds alone, broth microdilution; assay type: cell-based; details: Pseudomonas aeruginosa; strain CIP107051 (TEM-24); read-out: MIC compounds of the invention alone
Procedure: as §1

E. cloacae P99 [6] = assay: MIC of compounds alone, broth microdilution; assay type: cell-based; details: Enterobacter cloacae; strain P99 (AmpC); read-out: MIC compounds of the invention alone
Procedure: as §1

E. coli 190317 [7] = assay: MIC of compounds alone, broth microdilution; assay type: cell-based; details: Escherichia coli; strain 190317 (TEM-1, SHV-12, CTX-M-15, OXA-1); read-out: MIC compounds of the invention alone
Procedure: as §1

AmpC (PAE) = molecular target: T10, AmpC (PAE) (Pseudomonas aeruginosa, UniProt P24735); assay: biochemical; design: species or system P. aeruginosa
T10 construct: made in house; host or cells: E. coli expression vector
T10 sequence (P24735 27-397): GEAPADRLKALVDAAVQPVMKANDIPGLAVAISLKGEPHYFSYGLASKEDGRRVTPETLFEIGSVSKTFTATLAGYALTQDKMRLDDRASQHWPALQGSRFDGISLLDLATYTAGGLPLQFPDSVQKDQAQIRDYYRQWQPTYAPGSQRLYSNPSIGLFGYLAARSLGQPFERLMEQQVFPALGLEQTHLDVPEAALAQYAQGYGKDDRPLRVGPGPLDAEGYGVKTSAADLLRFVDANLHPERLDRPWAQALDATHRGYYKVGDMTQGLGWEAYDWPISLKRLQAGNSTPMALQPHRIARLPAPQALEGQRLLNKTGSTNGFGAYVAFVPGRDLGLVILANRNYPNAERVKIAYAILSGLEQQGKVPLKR
Procedure: as §2, §3

E. coli 190317 [8] = assay: MIC of ceftazidime alone and in combination with compounds (synergy), broth microdilution; assay type: cell-based; details: MIC of ceftazidime with compound fixed at 4 μg/mL; strain 190317 (TEM-1, SHV-12, CTX-M-15, OXA-1)
P. aeruginosa CIP105250 [9] = assay: as above; assay type: cell-based; details: MIC of ceftazidime with compound fixed at 4 μg/mL; strain CIP105250 (OXA-15)
Procedure: as §1

K. pneumoniae BAA-1898 [10] = assay: as above; assay type: cell-based; details: MIC of ceftazidime with compound fixed at 4 μg/mL; strain BAA-1898 (TEM-1, SHV-11, SHV-12, KPC-2)
Procedure: as §1

P. aeruginosa CIP107051 [11] = assay: as above; assay type: cell-based; details: MIC of ceftazidime with compound fixed at 4 μg/mL; strain CIP107051 (TEM-24)
Procedure: as §1

K. pneumoniae 6299 [12] = assay: as above; assay type: cell-based; details: MIC of ceftazidime with compound fixed at 4 μg/mL; strain 6299 (TEM-1, SHV-11, OXA-163)
Procedure: as §1

CNC(=O)CON=C1C[C@@H](C(=O)OC)N2C[C@@H]1N(OS(=O)(=O)[O-])C2=O.[Na+] (mixture of isomers) [Example 1, sodium [(2S,5S)-2-methoxycarbonyl-4-[2-(methylamino)-2-oxo-ethoxy]imino-7-oxo-1,6-diazabicyclo[3.2.1]octan-6-yl] sulfate]
MIC, combination of CAZ and compounds of the invention at 4 μg/mL (E. cloacae P99 [1]): 64 µg/mL
MIC (P. aeruginosa CIP105250 [2]): > 32 µg/mL
MIC (K. pneumoniae BAA-1898 [3]): > 32 µg/mL
MIC (E. coli 131119): > 32 µg/mL
MIC (K. pneumoniae 6299 [4]): > 32 µg/mL
IC50 (OXA-48): 0.51 nM
IC50 (OXA-11): 4.1 nM
IC50 (KPC-2): 7.8 nM
IC50 (OXA-1): 80 nM
IC50 (SHV-1): 1.3 nM
IC50 (TEM-1): 3.2 nM
IC50 (CTX-M-15): 5.4 nM
IC50 (OXA-15): 0.65 nM
IC50 (AmpC (P99)): 4.1 nM
MIC (E. coli RGN238): > 32 µg/mL
MIC (P. aeruginosa CIP107051 [5]): > 32 µg/mL
MIC (E. cloacae P99 [6]): > 32 µg/mL
MIC (E. coli 190317 [7]): > 32 µg/mL
IC50 (AmpC (PAE)): 37 nM
MIC, combination of CAZ and compounds of the invention at 4 μg/mL (E. coli 190317 [8]): 4 µg/mL
MIC, combination of CAZ and compounds of the invention at 4 μg/mL (P. aeruginosa CIP105250 [9]): 64 µg/mL
MIC, combination of CAZ and compounds of the invention at 4 μg/mL (K. pneumoniae BAA-1898 [10]): 128 µg/mL
MIC, combination of CAZ and compounds of the invention at 4 μg/mL (P. aeruginosa CIP107051 [11]): 64 µg/mL
MIC, combination of CAZ and compounds of the invention at 4 μg/mL (K. pneumoniae 6299 [12]): 32 µg/mL

NC(=O)CON=C1C[C@@H](C(N)=O)N2C[C@@H]1N(OS(=O)(=O)[O-])C2=O.[Na+] (mixture of isomers) [Example 3, sodium [(2S, 5S)-4-(2-amino-2-oxo-ethoxy)imino-2-carbamoyl-7-oxo-1,6-diazabicyclo[3.2.1]octan-6-yl] sulfate]
MIC, combination of CAZ and compounds of the invention at 4 μg/mL (E. cloacae P99 [1]): 32 µg/mL
MIC (P. aeruginosa CIP105250 [2]): > 32 µg/mL
MIC (K. pneumoniae BAA-1898 [3]): > 32 µg/mL
MIC (E. coli 131119): > 32 µg/mL
MIC (K. pneumoniae 6299 [4]): > 32 µg/mL
IC50 (OXA-48): 5.7 nM
IC50 (OXA-11): 48 nM
IC50 (KPC-2): 33 nM
IC50 (OXA-1): 17 nM
IC50 (SHV-1): 4.6 nM
IC50 (TEM-1): 3 nM
IC50 (CTX-M-15): 2 nM
IC50 (OXA-15): 1.6 nM
IC50 (AmpC (P99)): 7.4 nM
MIC (E. coli RGN238): > 32 µg/mL
MIC (P. aeruginosa CIP107051 [5]): > 32 µg/mL
MIC (E. cloacae P99 [6]): > 32 µg/mL
MIC (E. coli 190317 [7]): > 32 µg/mL
IC50 (AmpC (PAE)): 220 nM
MIC, combination of CAZ and compounds of the invention at 4 μg/mL (E. coli 190317 [8]): ≤0.125 µg/mL
MIC, combination of CAZ and compounds of the invention at 4 μg/mL (P. aeruginosa CIP105250 [9]): 32 µg/mL
MIC, combination of CAZ and compounds of the invention at 4 μg/mL (K. pneumoniae BAA-1898 [10]): 64 µg/mL
MIC, combination of CAZ and compounds of the invention at 4 μg/mL (P. aeruginosa CIP107051 [11]): 32 µg/mL
MIC, combination of CAZ and compounds of the invention at 4 μg/mL (K. pneumoniae 6299 [12]): 4 µg/mL
